Key:
[1] = In vitro cytotoxicity of L929 cells (AlamarBlue); assay type: cell-based, mice; settings: mouse, four days
Procedure: For this bioassay, 4000 mammalian cells in 200 µL of RPMI-1640 medium (pH 7.2–7.4) (Gibco BRL) plus 10% fetal bovine serum and 2 mM glutamine were added to each well of a 96-well microtiter plate, which was incubated for three days at 37 °C. […] After this period, 20 µL of AlamarBlue^TM was added to each well, and the plate was incubated for another 4–6 h. Then, the absorbance was measured at 570 nm. Controls with cells not treated and treated with benznidazole were performed in parallel, and triplicates were performed on the same plate. The results are expressed as the percent difference in the reduction between treated (CT) and untreated cells (UT) using the following equation:(1) 117.216Abs570 TC−80.586(Abs600 TC)/117.216Abs570 UT−80.586(Abs600 UT) × 100

in vitro = assay type: cell-based; settings: human
Procedure: The Lactate Desidrogenase (LDH) Cytotoxicity Detection Kit^PLUS and the Cell Proliferation Reagent WST-1 assays were performed according to the manufacturer’s protocols. The human hepatocellular carcinoma cell line HepG2 was cultured in T25/175 cm^2 flasks with Dulbecco’s modified Eagle’s medium (DMEM, Gibco BRL) supplemented with 10% fetal bovine serum, 3.7 g/L sodium bicarbonate and 100 µg/mL penicillin–streptomycin under standard conditions (37 ± 1 °C, 95% relative humidity and 5% CO2). Cells were split using trypsin-EDTA (0.05%) with phenol red solution (Gibco BRL) and seeded in a 96-well flat-bottomed plate at a density of 1 × 10^4 cells/well. After overnight incubation, the cells were washed with 1X PBS, and the medium was replaced with different compound dilutions (0–5000 µM) in fresh medium (100 µL) followed by 24 h of incubation. DMSO 1% was used as the negative control, and Triton X-100 4% was used as the positive control. For the LDH assay, after treatment, 50 µL of supernatant from each well was transferred to a 96-well flat-bottomed plate, and 50 µL of freshly prepared reaction mixture was added to each well. After 10 min of incubation in the dark at room temperature, 25 µL of stop solution was added to each well, and the absorbance was measured at 492 nm on a microplate reader (Polaris, Celer, MG, Brazil). For the WST-1 assay, after exposure, the supernatant was replaced by 100 µL of WST-1 2% in fresh medium and incubated for 3 h in the dark under standard conditions. The absorbance was measured at 440 nm. […] For cytotoxicity assays, significant differences between the groups were analyzed by one-way ANOVA and Tukey’s post hoc tests (p < 0.01).

S. typhimurium TA98 = test: Salmonella reverse mutation assay (Ames test, preincubation), TA98
Procedure: The compounds were tested in a reverse mutation assay preincubation protocol in the absence and presence of metabolic activation following standard protocols previously proposed by Maron and Ames. The histidine-dependent (his^−) strains TA98 and TA100 of Salmonella typhimurium were inoculated in 10 mL of Oxoid nutrient broth No. 2 containing 25 µg/mL ampicillin and incubated overnight (15–18 h) at 37 ± 1 °C on an orbital shaker (CT-712, Cientec, Belo Horizonte, MG, Brazil) at 150 rpm, obtaining a concentration of 1–2 × 10^9 cells/mL, confirmed by titration in nutrient agar plates. Briefly, 100 µL of stationary growth cultures of each strain were preincubated for 20 min on an orbital shaker (150 rpm) at 37 ± 1 °C, with 500 µL of 0.2 M phosphate buffer pH 7.4, or 500 µL of S9 mix 4% (Molecular Toxicology, Baltimore, MD, USA), and 100 µL of compound dilutions (0–5000 µM) or controls. DMSO 1% was used as a negative control. […] After incubation, 2 mL of top agar (0.7% agar, 0.5% NaCl, 0.05 mM L-histidine and D-biotin) at 45 ± 3 °C was added and gently mixed. The final mixture was poured on glucose minimal agar plates (1.5% agar, 10 g/L MgSO4·7H2O; 100 g/L of C6H8O7·H2O; 500 g/L K2HPO4; 175 g/L Na(NH4)HPO4·4H2O, 2% glucose) and incubated for 72 h at 37 ± 1 °C. The results were expressed as the mean of revertant colonies (His^+) per plate, standard deviation (SD) and mutagenicity induction fold (IF), calculated as the ratio between the number of colonies in the test group and the number of colonies in the negative control group. Mutagenic potency was calculated as the slope of the linear portion of the concentration–response function and expressed as revertants/µM. All assays were performed in triplicate and repeated at least two times. Statistical analyses were carried out in GraphPad Prism software (version 5.00, GraphPad Software, Boston, MA, USA).

SMILES: O=C(Cn1ccnc1[N+](=O)[O-])NCc1ccccc1 [BZN, benznidazole, reference compound]
- CC50 at 4 days [1]: 2110 ± 270 µM
- CC50 at 24 h (in vitro): > 500 µM
- CC50 at 48 h (in vitro): > 500 µM
- CC50 at 72 h (in vitro): > 500 µM
- IF (induction factor) (S. typhimurium TA98; TA98, +S9, 0.5 µM): 0.9
- revertant His+ colonies, mean ± SD (S. typhimurium TA98; TA98, +S9, 0.5 µM): 21 ± 2
- IF (induction factor) (S. typhimurium TA98; TA98, +S9, 5 µM): 0.9
- revertant His+ colonies, mean ± SD (S. typhimurium TA98; TA98, +S9, 5 µM): 17 ± 2
- IF (induction factor) (S. typhimurium TA98; TA98, +S9, 50 µM): 0.7
- revertant His+ colonies, mean ± SD (S. typhimurium TA98; TA98, +S9, 50 µM): 18 ± 1
- IF (induction factor) (S. typhimurium TA98; TA98, +S9, 500 µM): 1.3
- revertant His+ colonies, mean ± SD (S. typhimurium TA98; TA98, +S9, 500 µM): 31 ± 6
- IF (induction factor) (S. typhimurium TA98; TA98, +S9, 5000 µM): 1.4
- revertant His+ colonies, mean ± SD (S. typhimurium TA98; TA98, +S9, 5000 µM): 33 ± 4
- IF (induction factor) (S. typhimurium TA98; TA98, −S9, 0.5 µM): 1.1
- revertant His+ colonies, mean ± SD (S. typhimurium TA98; TA98, −S9, 0.5 µM): 28 ± 6
- IF (induction factor) (S. typhimurium TA98; TA98, −S9, 5 µM): 1.1
- revertant His+ colonies, mean ± SD (S. typhimurium TA98; TA98, −S9, 5 µM): 28 ± 4
- IF (induction factor) (S. typhimurium TA98; TA98, −S9, 50 µM): 1.1
- revertant His+ colonies, mean ± SD (S. typhimurium TA98; TA98, −S9, 50 µM): 28 ± 2
- IF (induction factor) (S. typhimurium TA98; TA98, −S9, 500 µM): 1.4
- revertant His+ colonies, mean ± SD (S. typhimurium TA98; TA98, −S9, 500 µM): 37 ± 5
- IF (induction factor) (S. typhimurium TA98; TA98, −S9, 5000 µM): 2.5
- revertant His+ colonies, mean ± SD (S. typhimurium TA98; TA98, −S9, 5000 µM): 67 ± 4

SMILES: O=[N+]([O-])c1ncn(CC(O)c2ccc(F)cc2F)n1 (stereo not drawn) [Compound 8, 1-(2,4-Difluorophenyl)-2-(3-nitro-1H-1,2,4-triazol-1-yl)ethanol]
- CC50 at 4 days [1]: 1200 ± 0.01 µM
- CC50 at 24 h (in vitro): > 500 µM
- CC50 at 48 h (in vitro): > 500 µM
- IF (induction factor) (S. typhimurium TA98; TA98, +S9, 0.5 µM): 1.0
- revertant His+ colonies, mean ± SD (S. typhimurium TA98; TA98, +S9, 0.5 µM): 24 ± 2
- IF (induction factor) (S. typhimurium TA98; TA98, +S9, 5 µM): 1.0
- revertant His+ colonies, mean ± SD (S. typhimurium TA98; TA98, +S9, 5 µM): 24 ± 7
- IF (induction factor) (S. typhimurium TA98; TA98, +S9, 50 µM): 1.0
- revertant His+ colonies, mean ± SD (S. typhimurium TA98; TA98, +S9, 50 µM): 23 ± 3
- IF (induction factor) (S. typhimurium TA98; TA98, +S9, 500 µM): 1.0
- revertant His+ colonies, mean ± SD (S. typhimurium TA98; TA98, +S9, 500 µM): 24 ± 5
- IF (induction factor) (S. typhimurium TA98; TA98, +S9, 5000 µM): 1.1
- revertant His+ colonies, mean ± SD (S. typhimurium TA98; TA98, +S9, 5000 µM): 26 ± 1
- Mutagenicity in the Ames test (verdict) (S. typhimurium TA98; TA98, absence or presence of metabolic activation): not mutagenic
- IF (induction factor) (S. typhimurium TA98; TA98, −S9, 0.5 µM): 0.9
- revertant His+ colonies, mean ± SD (S. typhimurium TA98; TA98, −S9, 0.5 µM): 23 ± 4
- IF (induction factor) (S. typhimurium TA98; TA98, −S9, 5 µM): 0.9
- revertant His+ colonies, mean ± SD (S. typhimurium TA98; TA98, −S9, 5 µM): 23 ± 1
- IF (induction factor) (S. typhimurium TA98; TA98, −S9, 50 µM): 1.1
- revertant His+ colonies, mean ± SD (S. typhimurium TA98; TA98, −S9, 50 µM): 30 ± 3
- revertant His+ colonies, mean ± SD (S. typhimurium TA98; TA98, −S9, 500 µM): Cytotoxic

SMILES: O=[N+]([O-])c1nccn1CC(O)c1ccc(F)cc1F (stereo not drawn) [Compound 9, 1-(2,4-Difluorophenyl)-2-(2-nitro-1H-imidazol-1-yl)ethanol]
- CC50 at 4 days [1]: > 400 µM
- CC50 at 24 h (in vitro): > 500 µM
- CC50 at 48 h (in vitro): > 500 µM
- CC50 at 72 h (in vitro): > 500 µM
- IF (induction factor) (S. typhimurium TA98; TA98, +S9, 0.5 µM): 0.8
- revertant His+ colonies, mean ± SD (S. typhimurium TA98; TA98, +S9, 0.5 µM): 18 ± 2
- IF (induction factor) (S. typhimurium TA98; TA98, +S9, 5 µM): 0.8
- revertant His+ colonies, mean ± SD (S. typhimurium TA98; TA98, +S9, 5 µM): 18 ± 2
- IF (induction factor) (S. typhimurium TA98; TA98, +S9, 50 µM): 0.9
- revertant His+ colonies, mean ± SD (S. typhimurium TA98; TA98, +S9, 50 µM): 22 ± 8
- IF (induction factor) (S. typhimurium TA98; TA98, +S9, 500 µM): 1.0
- revertant His+ colonies, mean ± SD (S. typhimurium TA98; TA98, +S9, 500 µM): 24 ± 5
- IF (induction factor) (S. typhimurium TA98; TA98, +S9, 5000 µM): 1.2
- revertant His+ colonies, mean ± SD (S. typhimurium TA98; TA98, +S9, 5000 µM): 28 ± 2
- IF (induction factor) (S. typhimurium TA98; TA98, −S9, 0.5 µM): 0.7
- revertant His+ colonies, mean ± SD (S. typhimurium TA98; TA98, −S9, 0.5 µM): 18 ± 6
- IF (induction factor) (S. typhimurium TA98; TA98, −S9, 5 µM): 0.7
- revertant His+ colonies, mean ± SD (S. typhimurium TA98; TA98, −S9, 5 µM): 18 ± 2
- IF (induction factor) (S. typhimurium TA98; TA98, −S9, 50 µM): 1.1
- revertant His+ colonies, mean ± SD (S. typhimurium TA98; TA98, −S9, 50 µM): 29 ± 3
- IF (induction factor) (S. typhimurium TA98; TA98, −S9, 500 µM): 1.8
- revertant His+ colonies, mean ± SD (S. typhimurium TA98; TA98, −S9, 500 µM): 49 ± 5
- IF (induction factor) (S. typhimurium TA98; TA98, −S9, 5000 µM): 6.5
- revertant His+ colonies, mean ± SD (S. typhimurium TA98; TA98, −S9, 5000 µM): 173 ± 21
